According to patent publication US12030892B2, “CRBN modulators” (DANA-FARBER CANCER INSTITUTE, INC., priority 2018, dated 2024):

Columns and labels:
BRD2 = assay: Cellular degradation assay, eGFP-BRD2BD1/BRD2BD2 mCherry reporters in Flip-In 293 cells; type: cell-based; conditions: BRD2BD1 and BRD2BD2 reporters, 5 h; compound 2 active via BRD2BD2
Description: (§1) IKZF1 (construct IKZF1^Δ1-82/Δ197-238/Δ256-519) BRD2BD1, BRD2BD2, BRD3BD1, BRD3BD2, BRD4BD1, and BRD4BD2 were subcloned into mammalian pcDNA5/FRT Vector (Ampicillin and Hygromycin B resistant) modified to contain MCS-eGFP-P2A-mCherry. Stable cell lines expressing eGFP-protein fusion and mCherry reporter were generated using Flip-In 293 system. Plasmid (0.3 μg) and pOG44 (4.7 μg) DNA were preincubated in 100 μL of Opti-MEM I (Gibco™ Life Technologies™) media containing 0.05 mg/ml Lipofectamine 2000 (Invitrogen™) for 20 min and added to Flip-In 293 cells containing 1.9 ml of DMEM media (Gibco™, Life Technologies™) per well in a 6-well plate format (Falcon®, 353046). […] Titrated compounds were incubated with cells for 5 h following trypsinisation and resuspension in DMEM media, transferred into 96-well plates (353910, Falcon®) and analyzed by flow cytometer (Guava© easyCyte HT, Millipore™) Signal from 5000 cells per well was acquired in singlicate or duplicate and the eGFP and mCherry florescence monitored. Data was analyzed using FlowJo® (FlowJo®, LCC). Forward and side scatter outliers, frequently associated with cell debris, were removed leaving >90% of total cells, followed by removal of eGFP and mCherry signal outliers, leaving 88-90% of total cells creating the set used for quantification. […]

BRD3 = assay: Cellular degradation assay, eGFP-BRD3BD1/BRD3BD2 mCherry reporters in Flip-In 293 cells; type: cell-based; conditions: BRD3BD1 and BRD3BD2 reporters, 5 h; both compounds active via BD1 and BD2
Description: as §1

BRD4 = assay: Cellular degradation assay, eGFP-BRD4BD1/BRD4BD2 mCherry reporters in Flip-In 293 cells; type: cell-based; conditions: BRD4BD1 and BRD4BD2 reporters, 5 h; compound 2 via BD1 and BD2, compound 1 via BD1
Description: as §1

[1] = tested on: bromodomain proteins BRD2, 3 and 4; assay: Change of cellular protein abundance (TMT quantitative proteomics) in Kelly cells; type: cell-based, human; conditions: 1 μM, 6 hours, compared to DMSO control
Description: Kelly cells were treated with DMSO control (biological triplicates) or 1 μM of inventive compound 1 or compound 2 for 6 hours (biological singlicate). Lysis buffer (8 M Urea, 50 mM NaCl, 50 mM 4-(2hydroxyethyl)-1-piperazineethanesulfonic acid (EPPS) pH 8.5, Protease and Phosphatase inhibitors from Roche) was added to the cell pellets and homogenized by 20 passes through a 21 gauge (1.25 in. long) needle to achieve a cell lysate with a protein concentration between 1-4 mg mL^−1. A Micro BCA™ assay (Pierce™) was used to determine the final protein concentration in the cell lysate. 200 μg of protein for each sample were reduced and alkylated as previously described.
Proteins were precipitated using methanol/chloroform/water (4:1:3). In brief, four volumes of methanol were added to the cell lysate, followed by one volume of chloroform, and finally three volumes of water. The mixture was vortexed and centrifuged to separate the chloroform phase from the aqueous phase. The precipitated protein was washed with three volumes of methanol, centrifuged and the resulting washed precipitated protein was allowed to air dry. Precipitated protein was resuspended in 4 M Urea, 50 mM 4-(2-hydroxyethyl)-1-piperazineethanesulfonic acid (HEPES) pH 7.4, followed by dilution to 1 M urea with the addition of 200 mM EPPS, pH 8. Proteins were first digested with LysC (1:50; enzyme:protein) for 12 hours at room temperature. The LysC digestion was diluted to 0.5 M Urea with 200 mM EPPS pH 8 followed by digestion with trypsin (1:50; enzyme:protein) for 6 hours at 37° C. Tandem mass tag (TMT) reagents (Thermo Fisher Scientific) were dissolved in anhydrous acetonitrile (ACN) according to manufacturer's instructions. Anhydrous ACN was added to each peptide sample to a final concentration of 30% v/v, and labeling was induced with the addition of TMT reagent to each sample at a ratio of 1:4 peptide:TMT label. The 10-plex labeling reactions were performed for 1.5 hours at room temperature and the reaction quenched by the addition of hydroxylamine to a final concentration of 0.3% for 15 minutes at room temperature. The sample channels were combined at a 1:1:1:1:1:1:1:1:1:1 ratio, desalted using C18 solid phase extraction cartridges (Waters) and analyzed by LC-MS for channel ratio comparison. Samples were then combined using the adjusted volumes determined in the channel ratio analysis and dried down in a speed vacuum. The combined sample was then resuspended in 1% formic acid, and acidified (pH 2-3) before being subjected to desalting with C18 SPE (Sep-Pak®, Waters). […]

DDB1ΔB-CRBN = DDB1ΔB-CRBN (Homo sapiens (Human), UniProt Q96SW2); assay: Atto565-Lenalidomide FP displacement assay (CRBN binding); conditions: for CRBN binding (in words), IC50 comparable to lenalidomide: FP displacement assay, FIG. 3A-3D; for IC50: FP displacement of 10 nM Atto565-Lenalidomide, 100 nM DDB1ΔB-CRBN, n=3; for Ki: FP displacement of Atto565-Lenalidomide
DDB1ΔB-CRBN, sequence (Q96SW2 whole entry, stated change not applied): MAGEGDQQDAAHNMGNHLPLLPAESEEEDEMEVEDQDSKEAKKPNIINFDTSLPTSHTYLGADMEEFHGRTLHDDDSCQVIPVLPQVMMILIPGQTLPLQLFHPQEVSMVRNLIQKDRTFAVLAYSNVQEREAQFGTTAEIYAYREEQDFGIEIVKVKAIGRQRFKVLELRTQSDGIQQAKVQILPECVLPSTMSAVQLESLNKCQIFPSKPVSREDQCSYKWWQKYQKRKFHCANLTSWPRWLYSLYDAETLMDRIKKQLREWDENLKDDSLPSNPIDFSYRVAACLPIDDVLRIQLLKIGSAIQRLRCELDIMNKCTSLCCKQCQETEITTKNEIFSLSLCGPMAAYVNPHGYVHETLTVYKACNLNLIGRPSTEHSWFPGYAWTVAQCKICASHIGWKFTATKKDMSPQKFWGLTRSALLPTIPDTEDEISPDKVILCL
Description: Compounds in Atto565-Lenalidomide displacement assay were dispensed in a 384-well microplate (Corning, 4514) using D300e Digital Dispenser (HP) normalized to 1% DMSO into 10 nM Atto565-Leanlidomide, 100 nM DDB1ΔB-CRBN, 50 mM Tris pH 7.5, 200 mM NaCl, 0.1% Pluronic® F-68 solution (Sigma). Compound titrations were incubated for 60 min at RT. The change in fluorescence polarization was monitored using a PHERAstar® FS microplate reader (BMG Labtech) for 1 h in 120 s cycles. Data from three independent replicates (n=3) was used to estimate IC50 values using variable slope equation in GraphPad Prism 7.

MM1.S cells = assay: MM1.S cell proliferation; type: cell-based; conditions: Homo sapiens
IKZF1 = IKZF1 (Homo sapiens (Human), UniProt Q13422+Q96SW2, DEL197-238/DEL256-519); assay: Cellular degradation assay, eGFP-IKZF1/mCherry reporter in Flip-In 293 cells; type: cell-based; conditions: 5 h incubation, eGFP/mCherry relative abundance, FIG. 1A-1C
Description: Following 2-3 passage cycle FACS (FACSAria™ II, BD) was used to enrich for cells expressing eGFP and mCherry. […] Data was analyzed using FlowJo® (FlowJo®, LCC). […] The eGFP protein abundance relative to mCherry was then quantified as a ten-fold amplified ratio for each individual cell using the formula: 10×eGFP/mCherry. The median of the ratio was then calculated per set, normalized to the median of the DMSO ratio, and is denoted as relative abundance.

| SMILES | CRBN binding (in words), IC50 comparable to lenalidomide (DDB1ΔB-CRBN) | IC50 (DDB1ΔB-CRBN) | Ki (DDB1ΔB-CRBN) | IC50 (MM1.S cells) | activity against the target IKZF1 (degradation, in words) (IKZF1) | degradation activity against BRD2 (in words) (BRD2) | degradation activity against BRD3 (in words) (BRD3) | degradation activity against BRD4 (in words) (BRD4) | change in relative abundance of endogenous bromodomain proteins (in words) [1] | degradation of common IMiD-dependent off-targets (in words) [1] |
| --- | --- | --- | --- | --- | --- | --- | --- | --- | --- | --- |
| COC(=O)C[C@@H]1N=C(c2ccc(Cl)cc2)c2c(sc(C(=O)NCCCCCOc3cc4c5c(cccc5c3)C(=O)N(C3CCC(=O)NC3=O)C4=O)c2C)-n2c(C)nnc21 (stereo partly drawn) [Compound 1, methyl 2-((6S)-4-(4-chlorophenyl)-2-((5-((2-(2,6-dioxopiperidin-3-yl)-1,3-dioxo-2,3-dihydro-1H-benzo[de]isoquinolin-5-yl)oxy)pentyl)carbamoyl)-3,9-dimethyl-6H-thieno[3,2-f][1,2,4]triazolo[4,3-a][1,4]diazepin-6-yl)acetate] |  |  |  |  |  | inactive | active | active | downregulation of bromodomain proteins BRD4 | did not induce degradation |
| Cc1sc2c(c1C)C(c1ccc(Cl)cc1)=N[C@@H](CC(=O)NCCCCCCCCNC(=O)COc1cc3c4c(cccc4c1)C(=O)N(C1CCC(=O)NC1=O)C3=O)c1nnc(C)n1-2 (stereo partly drawn) [Compound 2, 2-((S)-4-(4-chlorophenyl)-2,3,9-trimethyl-6H-thieno[3,2-f][1,2,4]triazolo [4,3-a][1,4]diazepin-6-yl)-N-(8-(2-(2-(2,6-dioxopiperidin-3-yl)-1,3-dioxo-2,3-dihydro-1H-benzo[de]isoquinolin-5-yloxy)acetamido)octyl)acetamide] |  |  |  |  |  | active | active | active | downregulation of bromodomain proteins BRD2, 3 and 4 | did not induce degradation |

Now from value to compound, other results behind:

| CRBN binding (in words), IC50 comparable to lenalidomide (DDB1ΔB-CRBN) | IC50 (DDB1ΔB-CRBN) | Ki (DDB1ΔB-CRBN) | IC50 (MM1.S cells) | activity against the target IKZF1 (degradation, in words) (IKZF1) | SMILES | degradation activity against BRD2 (in words) (BRD2) | degradation activity against BRD3 (in words) (BRD3) | degradation activity against BRD4 (in words) (BRD4) | change in relative abundance of endogenous bromodomain proteins (in words) [1] | degradation of common IMiD-dependent off-targets (in words) [1] |
| --- | --- | --- | --- | --- | --- | --- | --- | --- | --- | --- |
| potent binders of CRBN | 2.6 µM | 0.7 µM | ~21.5 µM | inactive | O=C1CCC(N2C(=O)c3cccc4cccc(c34)C2=O)C(=O)N1 (centres unmarked) [Compound 9, 2-(2,6-dioxopiperidin-3-yl)-1H-benzo[de]isoquinoline-1,3(2H)-dione] |  |  |  |  |  |
| potent binders of CRBN | 3.5 µM | 0.98 µM |  | inactive | O=C1CCC(N2C(=O)c3cccc4cc(O)cc(c34)C2=O)C(=O)N1 (centres unmarked) [Compound 10, 2-(2,6-dioxopiperidin-3-yl)-5-hydroxy-1H-benzo[de]isoquinoline-1,3(2H)-dione] |  |  |  |  |  |
| potent binders of CRBN | 11.4 µM | 3.2 µM |  | inactive | Nc1cc2c3c(cccc3c1)C(=O)N(C1CCC(=O)NC1=O)C2=O (centres unmarked) [Compound 11, 5-amino-2-(2,6-dioxopiperidin-3-yl)-1H-benzo[de]isoquinoline-1,3(2H)-dione] |  |  |  |  |  |
